Reference: patent publication US9695155B2, “Herbicidal substituted pyrimidinyloxy benzene compounds” (E. I. DU PONT DE NEMOURS AND COMPANY, priority 2013, dated 2017)

Columns and labels:
giant foxtail = assay: Test C postemergence; type: in vivo, Setaria faberii
Procedure, shortened: (§1)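 Visual injury score versus untreated controls, 0 = no effect, 100 = complete control, taken 13 to 15 days after treatment in the greenhouse. Pre-emergence pots held loam/sand; post-emergence plants grew in sphagnum peat/vermiculite mix and were sprayed at the 1- to 4-leaf stage.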

soybean [1] = assay: Test C postemergence; type: in vivo, Glycine max
Procedure, shortened: as §1

blackgrass [2] = assay: Test C postemergence; type: in vivo, Alopecurus myosuroides
Procedure, shortened: as §1

barnyardgrass [3] = assay: Test A preemergence; type: in vivo, Echinochloa crus-galli; conditions: 0 to 100 scale where 0 is no effect and 100 is complete control
Procedure, shortened: (§2)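 Visual injury scored 0–100 (100 = complete control) against untreated controls about 10 days after treatment in a greenhouse. Test chemicals, formulated with surfactant in non-phytotoxic solvent, were sprayed on soil preemergence or on 2-10 cm, one- to two-leaf plants postemergence.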

soybean [4] = assay: Test C preemergence; type: in vivo, Glycine max; conditions: preemergence
Procedure, shortened: as §1

barnyardgrass [5] = assay: Test C preemergence; type: in vivo, Echinochloa crus-galli; conditions: for Barnyardgrass plant response rating: preemergence
Procedure, shortened: as §1

morningglory = assay: Test A postemergence; type: in vivo, Ipomoea spp.; conditions: 0 to 100 scale where 0 is no effect and 100 is complete control
Procedure, shortened: as §2

ragweed = assay: Test C postemergence; type: in vivo, Ambrosia elatior
Procedure, shortened: as §1

wheat = assay: Test A postemergence; type: in vivo, Triticum aestivum; conditions: 0 to 100 scale where 0 is no effect and 100 is complete control
Procedure, shortened: as §2

rice = assay: Test B flooded paddy test; type: in vivo, Oryza sativa; conditions: Flood, 250 g ai/ha; 0 to 100 scale where 0 is no effect and 100 is complete control
Procedure, shortened: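 2-leaf stage plants; pots flooded to 3 cm, compound added to paddy water, depth maintained. Greenhouse 13–15 d. Visual rating vs untreated controls, 0 (no effect) to 100 (complete control); dash = no result.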

wheat, winter = assay: Test C preemergence; type: in vivo, Triticum aestivum; conditions: preemergence
Procedure, shortened: as §1

oilseed rape = assay: Test C postemergence; type: in vivo, Brassica napus
Procedure, shortened: as §1

large (Lg) crabgrass = assay: Test C preemergence; type: in vivo, Digitaria sanguinalis; conditions: for Crabgrass, Large plant response rating: preemergence
Procedure, shortened: as §1

blackgrass [6] = assay: Test C preemergence; type: in vivo, Alopecurus myosuroides; conditions: for Blackgrass plant response rating: preemergence
Procedure, shortened: as §1

[7] = 16 g ai/ha, postemergence, 0 is no effect, 100 is complete control
[8] = 31 g ai/ha, postemergence, visual rating, scale 0 to 100 (0 no effect, 100 complete control), 13 to 15 days
[9] = 125 g ai/ha, postemergence, visual rating, scale 0 to 100 (0 no effect, 100 complete control)
[10] = Postemergence, 62 g ai/ha, scale 0 to 100 (0 no effect, 100 complete control)
[11] = 16 g ai/ha, scale 0 to 100 (0 no effect, 100 complete control)
[12] = 62 g ai/ha, scale 0 (no effect) to 100 (complete control)
[13] = 125 g ai/ha, scale 0 (no effect) to 100 (complete control)
[14] = Preemergence, 31 g ai/ha, scale 0 to 100, 0 no effect, 100 complete control

FC(F)(F)c1cnn(-c2c(Cl)cccc2Oc2ncc(Cl)cn2)c1 [Compound 167]
Plant response rating (0 to 100), Foxtail, Giant (giant foxtail; [7]): 10 | Foxtail, Giant plant response rating (giant foxtail; [8]): 10 | Plant response rating, Foxtail, Giant (giant foxtail; [9]): 30 | Plant response rating, Foxtail, Giant (giant foxtail; [10]): 10 | Plant response rating (0 to 100), Soybean (soybean [1]; [7]): 20 | Soybean plant response rating (soybean [1]; [8]): 30 | Plant response rating, Soybean (soybean [1]; [9]): 60 | Plant response rating, Soybean (soybean [1]; [10]): 60 | Plant response rating (0 to 100), Blackgrass (blackgrass [2]; [7]): 0 | Blackgrass plant response rating (blackgrass [2]; [8]): 5 | Plant response rating, Blackgrass (blackgrass [2]; [9]): 30 | Plant response rating, Blackgrass (blackgrass [2]; [10]): 5 | Plant response rating, Barnyardgrass (barnyardgrass [3]; 125 g ai/ha): 80 | Barnyardgrass plant response rating (barnyardgrass [3]; 500 g ai/ha): 100 | Soybean plant response rating (soybean [4]; [11]): 10 | Soybean plant response rating (soybean [4]; [12]): 90 | Soybean plant response rating (soybean [4]; [13]): 90 | Barnyardgrass plant response rating (barnyardgrass [5]; [11]): 5 | Barnyardgrass plant response rating (barnyardgrass [5]; [12]): 100 | Barnyardgrass plant response rating (barnyardgrass [5]; [13]): 100 | Plant response rating, Barnyardgrass (barnyardgrass [5]; [14]): 85 | Morningglory plant response rating (morningglory; 125 g ai/ha): 80 | Plant response rating, Morningglory (morningglory; 500 g ai/ha): 100 | Plant response rating (0 to 100), Ragweed (ragweed; [7]): 10 | Ragweed plant response rating (ragweed; [8]): 10 | Plant response rating, Ragweed (ragweed; [9]): 55 | Plant response rating, Ragweed (ragweed; [10]): 30 | Wheat plant response rating (wheat; 125 g ai/ha): 20 | Plant response rating, Wheat (wheat; 500 g ai/ha): 60 | Plant response rating, Rice (rice): 0 | Wheat plant response rating (wheat, winter; [11]): 0 | Wheat plant response rating (wheat, winter; [12]): 5 | Wheat plant response rating (wheat, winter; [13]): 50 | Plant response rating (0 to 100), Oilseed Rape (oilseed rape; [7]): 15 | Oilseed Rape plant response rating (oilseed rape; [8]): 50 | Plant response rating, Oilseed Rape (oilseed rape; [9]): 70 | Plant response rating, Oilseed Rape (oilseed rape; [10]): 85 | Crabgrass, Large plant response rating (large (Lg) crabgrass; [11]): 75 | Crabgrass, Large plant response rating (large (Lg) crabgrass; [12]): 100 | Crabgrass, Large plant response rating (large (Lg) crabgrass; [13]): 100 | Plant response rating, Crabgrass, Large (large (Lg) crabgrass; [14]): 98 | Blackgrass plant response rating (blackgrass [6]; [11]): 30 | Blackgrass plant response rating (blackgrass [6]; [12]): 90 | Blackgrass plant response rating (blackgrass [6]; [13]): 90 | Plant response rating, Blackgrass (blackgrass [6]; [14]): 30
